Measurements as given in article PMC13379236 (Cell reports, 2026).

Legend:
ZYG11B-EloBC [1] = molecular target: T1, ZYG11B-EloBC (Homo sapiens, UniProt Q9C0D3); type: binding
CRL2^ZYG11B = assay: MBP pull-down with E3 holoenzyme CRL2^ZYG11B; type: binding, human; conditions: MBP fusion on amylose resin, prey 1:1, 1 h, 4°C; SDS-PAGE, Coomassie
Procedure: Bacmids were generated in DH10Bac cells and transfected into Sf9 cells to produce recombinant baculovirus, which was amplified through two additional rounds. Four liters of Sf9 cells at 2 × 10 ^6 cells/mL were infected with amplified virus and harvested after 60 h. Cell pellets were resuspended in buffer B (50 mM Tris-HCl, 500 mM NaCl, 0.5 mM EDTA, 0.5 mM TCEP, and 1 mM PMSF) supplemented with protease inhibitors, lysed by sonication, and clarified by ultracentrifugation at 40,000 rpm for 1 h. The supernatant was incubated with Strep-Tactin Sepharose resin for 2 h, washed extensively with buffer B, and eluted with 20 mM HEPES, pH 7.5, 300 mM NaCl, 0.5 mM TCEP, and 10 mM D-desthiobiotin. The complex was further purified by size-exclusion chromatography in the same sizing buffer used for ZYG11B–EloBC.
To reconstitute the pentameric CRL2–ZYG11B complex (ZBCC), purified ZYG11B–EloBC and CUL2/Rbx1 complexes were mixed at a 1:1 molar ratio and incubated on ice for 30 min. […]
Peptides corresponding to […] and […] were appended to the N terminus of maltose-binding protein (MBP) and cloned into pET-28a containing an N-terminal His6 tag followed by a TEV protease cleavage site. […] Samples were analyzed by SDS-PAGE and Coomassie staining. Pulldown efficiency was quantified as the ratio of MBP–NLRP1 degron signal to ZYG11B signal in the same gel lane. […]

[2] = tested on: CUL5/RBX2 with ZYG11B-EloBC; type: binding, human
ZYG11B-EloBC [3] = molecular target: T1, ZYG11B-EloBC; assay: MBP pull-down with substrate receptor module ZYG11B-EloBC; type: binding; conditions: MBP fusion on amylose resin, prey 1:1, 1 h, 4°C; SDS-PAGE, Coomassie
Procedure: Peptides corresponding to […] and […] were appended to the N terminus of maltose-binding protein (MBP) and cloned into pET-28a containing an N-terminal His6 tag followed by a TEV protease cleavage site. Fusion proteins were purified by Ni-NTA chromatography, digested with TEV protease, and passed over Ni-NTA resin again to remove TEV and the cleaved His6 tag. Final purification was performed by size-exclusion chromatography. The resulting proteins contained MBP fused to N-terminal Gly/N-degron overhangs. For pulldown experiments, approximately 100 μg MBP fusion protein was immobilized on 50 μL amylose resin and incubated with prey protein at a 1:1 molar ratio for 1 h at 4°C. Resin was washed three times, and bound proteins were eluted in sizing buffer supplemented with 20 mM maltose. Samples were analyzed by SDS-PAGE and Coomassie staining. Pulldown efficiency was quantified as the ratio of MBP–NLRP1 degron signal to ZYG11B signal in the same gel lane. […]
incubation of full-length Cyclin B1 without Gly/N-degron with ZYG11B–EloBC (top). SDS–PAGE analysis of the indicated fractions from the Superose 6 column (dashed lines) confirms complex formation (bottom) C, fluorescence anisotropy binding of ZYG11B-EloBC to indicated fluorescein-labeled peptides (left) and fitted equilibrium dissociation constants (right). […]

NLRP1 = conditions: treatment of cells with pan-CRL inhibitor; cited from earlier work
Source text: Human NLRP1 (NACHT, LRR, and PYD domains-containing protein 1) has recently been characterized as a substrate of CRL2 in complex with either ZYG11B or ZER1.[7] NLRP1 is an effector-triggered immunity (ETI) sensor of pathogen-encoded proteases, wherein cleavage of NLRP1 in mice and humans by specific bacterial or viral proteases results in inflammasome formation, which leads to subsequent release of pro-inflammatory cytokines such as IL-1b and IL-18 and pyroptotic cell death.[7]-[10] The mechanism by which this occurs, termed functional degradation, depends on specific recognition, ubiquitinati ...

T1 sequence (Q9C0D3 whole entry, the tested form may be a part): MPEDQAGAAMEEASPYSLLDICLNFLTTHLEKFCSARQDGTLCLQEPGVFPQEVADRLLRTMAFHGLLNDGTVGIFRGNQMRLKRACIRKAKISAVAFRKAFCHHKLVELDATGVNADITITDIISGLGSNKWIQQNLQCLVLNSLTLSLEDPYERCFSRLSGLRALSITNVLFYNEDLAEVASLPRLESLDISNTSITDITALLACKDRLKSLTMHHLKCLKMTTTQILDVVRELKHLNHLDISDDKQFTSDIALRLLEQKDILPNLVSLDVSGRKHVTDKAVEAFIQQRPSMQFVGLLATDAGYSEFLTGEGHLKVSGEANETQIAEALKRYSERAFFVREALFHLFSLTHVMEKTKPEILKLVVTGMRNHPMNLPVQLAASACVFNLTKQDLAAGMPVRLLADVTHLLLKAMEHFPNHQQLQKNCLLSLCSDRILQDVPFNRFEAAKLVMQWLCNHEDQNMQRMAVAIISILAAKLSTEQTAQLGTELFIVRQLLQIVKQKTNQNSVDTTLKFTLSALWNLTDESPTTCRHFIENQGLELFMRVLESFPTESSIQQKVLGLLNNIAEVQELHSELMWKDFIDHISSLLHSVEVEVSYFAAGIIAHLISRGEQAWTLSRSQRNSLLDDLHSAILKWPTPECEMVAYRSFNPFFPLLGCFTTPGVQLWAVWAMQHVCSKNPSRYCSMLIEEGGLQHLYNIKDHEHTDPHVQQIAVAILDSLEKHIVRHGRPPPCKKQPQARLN
T1 sequence (Q15370 whole entry partner, the tested form may be a part): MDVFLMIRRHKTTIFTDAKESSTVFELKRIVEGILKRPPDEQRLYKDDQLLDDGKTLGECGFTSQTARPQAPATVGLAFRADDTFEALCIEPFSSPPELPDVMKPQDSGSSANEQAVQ
T1 sequence (Q15369 17-112 partner limits assumed): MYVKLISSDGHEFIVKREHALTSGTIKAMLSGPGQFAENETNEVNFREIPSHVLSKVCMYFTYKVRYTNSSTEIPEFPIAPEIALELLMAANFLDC

| Compound | co-purification / complex formation with ZYG11B-EloBC (ZYG11B-EloBC [1]) | interaction with CRL2^ZYG11B (CRL2^ZYG11B) | amount of CUL5/RBX2 retained compared to CUL2/RBX1 [2] | interaction with ZYG11B-EloBC (ZYG11B-EloBC [3]) | effect on HRV-mediated activation of NLRP1 (NLRP1) |
| --- | --- | --- | --- | --- | --- |
| GSERRVLRQLPDTSG [chimera] | copurified with ZYG11B-EloBC |  |  |  |  |
| GSERRVLRQLPDTSGRRWRE [Degron-20] |  | interacted | reduced compared to CUL2/RBX1 | interacted |  |
| GSERRVLRQL [Degron-10] |  | interacted | reduced compared to CUL2/RBX1 | interacted |  |
| NS(=O)(=O)OC[C@@H]1C[C@@H](n2ccc3c(N[C@H]4CCc5ccccc54)ncnc32)C[C@@H]1O [MLN4924] |  |  |  |  | impairs HRV-mediated activation of NLRP1 |
